Structures are written as SMILES. “Also recorded” adds a separate entry of the source. Where a name gives a salt, the structure may show the parent alone.

The nature of data set [1]: PTR-MS headspace release at various flavor compound to 1,3-propanediol or PG ratios (Example 2). To be noted: for Percent Suppression by 1,3-propanediol: (IZ−IPG)/IPG×100. The data set is classed as physicochemical. The method, then:
The compounds listed below in Table 3 were added together to provide a liquid flavoring to analyze the role, if any, of the amount of 1,3-propanediol on flavor release. […] The amount of each flavor compound in the beverage was held constant at 8 ppm except furfuryl mercaptan was included at 1.6 ppm while the amount of propylene glycol or 1,3-propanediol varied.
The percent suppression was calculated using the following formula: (IZ−IPG)/IPG×100, where I is peak height, “Z” is 1,3-propanediol and “PG” is propylene glycol.

A short description of data set [2]: PTR-MS headspace release in neat solvent, solvent/solvent experiment (Example 5). The class given is physicochemical. On the set-up: key to Release Differences: “Z” indicates that 1,3-propanediol had higher equilibrium maximum (meaning more of the flavor was released in 1,3-propanediol); “P” indicates that propylene glycol had higher equilibrium maximum; “-” indicates no statistical difference (95% significance) between the two samples. To be noted: 1.5 hrs equilibration; for Release Differences: 1,3-propanediol versus propylene glycol as sole solvent, 95% significance. The method, then:
[…]. Then the head space was analyzed as described above.
0.86 grams of the concentrate was added to 100 grams of either propylene glycol or 1,3-propanediol to provide a 1,3-propanediol diluted concentrate or propylene glycol diluted concentrate. The diluted concentrates were then further diluted as outlined in Table 10 below.
A 15 gram sample was weighed into a 4 oz vessel and analyzed at 1.5 hrs. of equilibration time as described in the method of Example 4.

Data set [3] in a line: PTR-MS headspace release from stored beverages, water/solvent experiment (Example 4). The class given is physicochemical. As to conditions: beverage stored refrigerated; 1.5, 24, 48 and 72 hours; Tukey-Kramer. The procedure:
0.86 grams of the flavor concentrate was then added to 100 grams of either propylene glycol or 1,3-propanediol to provide diluted concentrates. […].
The beverages were then stored in sealed containers in a refrigerator. The container was opened five times over the course of the experiment and therefore represented a beverage in a sealed container being opened for multiple uses. 15 gram samples were weighed into a 4 ounce cup and analyzed at 1.5 hours, 24 hours, 48 hours, and 72 hours after storage.
The samples were analyzed in triplicate by PTR-MS as described below to determine impact of 1,3-propanediol or propylene glycol on release of the flavors from the beverage. The PTR-MS was performed as follows. A sampling apparatus was needed in conjunction with the PTR-MS inlet to prevent variations caused by headspace kinetics. The sampling apparatus used includes a 4 ounce sample vessel equipped with a 2-hole lid which may be sealed by an adhesive film to allow equilibration. […]. The holes were equal sized (˜2 mm diameter) and match the outer diameter of the PTR-MS inlet line. The flow of the dilution gas into the vessel was regulated by the vacuum and proportional valve of the PTR-MS inlet system. […] The 2 holes in the lid were equidistant from the edge of the vessel (˜20 mm) and ˜30 mm from each other. The PTR-MS inlet was braced by clamps in a fixed position vertically above the laboratory bench (˜55 mm) and a silicone rubber depth gauge was affixed to the PTR-MS inlet tubing and set at 18 mm. The PTR-MS inlet was consistently oriented in a vertical position […] below the inside lid of the vessel and 19 mm above the sample in the vessel. The sample vessel was then held in place during sampling according to the depth gauge on the inlet line and the vessel was subsequently supported on the bench by a 10 mm plastic spacer.
15 grams of the sample to be tested (e.g., food or beverage product containing 1,3-propanediol) are added to the vessel and the vessel is sealed and allowed to equilibrate at room temperature (˜22° C.) for 90 minutes. At the time of sampling, the seal was removed from both the sampling hole and the dilution gas hole in the lid and the vessel was immediately affixed to the PTR-MS inlet via the sampling hole. The real-time released flavor was measured from the headspace of the sample vessel for two minutes (according to the conditions listed in Table 1 above).
The data was analyzed using PTR-MS Viewer, Version 3.0.0.101 (Ionicon Analytik G.m.b.H). The point of maximum intensity for each compound of interest was determined and recorded according to the PTR-MS Viewer software. The maximum intensity in counts over the timescale for each compound of interest was used for data analysis as it reflected the static equilibrium headspace concentration in the system at the moment of seal removal. Due to the necessity of a dilution gas, the volatile concentration decreased over time as the compounds of interest re-equilibrated to a state of dynamic equilibrium in the headspace.
The statistical differences were determined by Tukey-Kramer Honest […]. […].

Data set [4] is described as follows: PTR-MS headspace release with various non-aqueous liquids (diols) at 0.05:100 (Example 3). To be noted: ratio 0.05:100; for PTR-MS headspace release in 1,3-butanediol: non-aqueous liquid 1,3-butanediol; for PTR-MS headspace release in 1,3-butanediol / PTR-MS headspace release in 1,3-propanediol / PTR-MS headspace release in 1,4-butanediol / PTR-MS headspace release in 1,7-heptanediol / PTR-MS headspace release in Propylene glycol: diluted in water; for PTR-MS headspace release in 1,3-propanediol: non-aqueous liquid 1,3-propanediol; for PTR-MS headspace release in 1,4-butanediol: non-aqueous liquid 1,4-butanediol; for PTR-MS headspace release in 1,7-heptanediol: non-aqueous liquid 1,7-heptanediol; for PTR-MS headspace release in Propylene glycol: non-aqueous liquid propylene glycol. The data set is classed as physicochemical. The procedure: […]. The flavoring was then diluted in water for analysis. The final concentration of each compound was held constant at 8 ppm except furfuryl mercaptan was included at 1.6 ppm to maintain a constant flavor level in the resulting beverage while the non-aqueous liquid varied but the ratio of each compound to non-aqueous liquid was held constant at 0.05:100. A variety of non-aqueous liquids were evaluated, including 1,4-butandiol; 1,7-heptandiol; 1,3-butandiol, propylene glycol, and 1,3-propanediol.
Samples were analyzed by PTR-MS as described in Example 1.
Percent suppression was calculated by the following formula: (I1-3-diol−Ialternate diol)/Ialternate diol×100.

For data set [5] the following is noted: not marked (est); cited from earlier work.
Data set [6] is described as follows: PTR-MS real-time headspace release, watermelon flavor model in water (Example 1). The data set is classed as physicochemical. Further details: Sample A (PG) Mean / Sample B (1,3-propanediol) Mean: unit not given here. The method, then: The impact of 1,3-propanediol on the release of flavor compounds can be analyzed by Proton Transfer Reaction Mass Spectrometry (PTR-MS; model TOF-8000 from Ionicon Analytik Inc.), where real-time headspace release of volatiles is measured. A sampling apparatus is needed in conjunction with the PTR-MS inlet to prevent variations caused by headspace kinetics. By one exemplary approach, the sampling apparatus includes a 4 ounce sample vessel equipped with a 2-hole lid which may be sealed by an adhesive film to allow equilibration. […]. The holes are equal sized (˜2 mm diameter) and match the outer diameter of the PTR-MS inlet line. The flow of the dilution gas into the vessel is regulated by the vacuum and proportional valve of the PTR-MS inlet system. The sample vessel has a base diameter of 47 mm and is 45 mm high, of which 8 mm of height is occupied by the sample in the vessel in these experiments. The 2 holes in the lid are equidistant from the edge of the vessel (˜20 mm) and about 30 mm from each other. The PTR-MS inlet is braced by clamps in a fixed position vertically above the laboratory bench (˜55 mm) and a silicone rubber depth gauge is affixed to the PTR-MS inlet tubing and set at 18 mm. The PTR-MS inlet is thus consistently oriented in a vertical position 18 mm below the inside lid of the vessel and 19 mm above the sample in the vessel. The sample vessel is then held in place during sampling according to the depth gauge on the inlet line and the vessel is subsequently supported on the bench by a 10 mm plastic spacer.
15 grams of the sample to be tested (e.g., food or beverage product containing 1,3-propanediol) are added to the vessel. The vessel is sealed and allowed to equilibrate at room temperature (˜22° C.) for 90 minutes. At the time of sampling, the seal is removed from both the sampling hole and the dilution gas hole in the lid and the vessel is immediately affixed to the PTR-MS inlet via the sampling hole. The real-time released flavor is measured from the headspace of the sample vessel for two minutes (according to the conditions listed in Table 1 below). A comparative sample is prepared that is otherwise identical to the test sample but contains propylene glycol or water instead of 1,3-propanediol. The comparative sample is then analyzed in triplicate by PTR-MS using the above-described procedure. The data can be analyzed using PTR-MS Viewer, Version 3.0.0.101 (Ionicon Analytik G.m.b.H). The point of maximum intensity for each compound of interest can be determined and recorded according to the PTR-MS Viewer software. The maximum intensity in counts over the timescale for each compound of interest can be used for data analysis as it reflects the static equilibrium headspace concentration in the system at the moment of seal removal. Due to the necessity of a dilution gas, the volatile concentration decreases over time as the compounds of interest re-equilibrate to a state of dynamic equilibrium in the headspace.
[…]. Sample A was prepared with 20 grams watermelon flavor concentrate and 80 grams propylene glycol. Sample B was prepared with 20 grams watermelon flavor concentrate and 80 grams 1,3-propanediol. Each of the samples was further diluted by adding 0.08 grams of each diluted concentrate to 99.92 grams water to provide a flavor water solution.
The diluted samples were analyzed by Proton Transfer Reaction Mass Spectrometry (PTR-MS; model TOF-8000 from Ionicon Analytik Inc.) for real-time headspace release volatiles measurement. Samples were analyzed in triplicate. […]. […].

Setting [7] is: ratio 0.005:100, negative = suppressed vs PG.

Regarding `CCCCCCCCO` [Octanol], the “Percent Suppression by 1,3-propanediol” value in data set [1] (setting [7]) is recorded as 8.5%. In addition, the “Percent Suppression by 1,3-propanediol” value in data set [1] (ratio 0.05:100) is on record as −11.4%. The “Percent Suppression by 1,3-propanediol” value in data set [1] (ratio 5:100) is on record as −19.1%. Also, the “Percent Suppression by 1,3-propanediol” value in data set [1] (ratio 15:100) was −0.6%. In addition, in data set [2], the “Release Differences” value was “P” and the “release in 1,3-propanediol versus propylene glycol, solvent/solvent” value was “no significant difference”. Moreover, the “effect of 1,3-propanediol on flavor release relative to propylene glycol, water/solvent” value in data set [3] was “significantly suppressed release; also recorded: released faster in propylene glycol”. Besides, in data set [4], the “PTR-MS headspace release in 1,3-butanediol” value worked out at 4.0, the “PTR-MS headspace release in 1,3-propanediol” value came to 1.05, the “PTR-MS headspace release in 1,4-butanediol” value came out at 5.1 and the “PTR-MS headspace release in 1,7-heptanediol” value is listed as 6.2. In data set [4], the “PTR-MS headspace release in Propylene glycol” value is on record as 1.19 and the “Percent suppression by 1,3-butanediol relative to 1,4-butanediol” value is given as −27.5%.
In the case of `CCOC=O` [Ethyl formate], the “logP (o/w)” value in data set [5] is listed as 0.23. Also, the “Sample B (1,3-propanediol) Mean” value in data set [6] (PTR-MS headspace, watermelon flavor concentrate in 1,3-propanediol, diluted in water, 90 minutes equilibration, mean of three) turned out to be 41.67. In addition, the “Sample A (PG) Mean” value in data set [6] (PTR-MS headspace, watermelon flavor concentrate in propylene glycol, diluted in water, 90 minutes equilibration, mean of three) came to 50.50. Besides, the “Percent Release Difference” value in data set [6] (Sample B (1,3-propanediol) relative to Sample A (PG)) is −17.5%.
Regarding `Cc1nc(C)c(C)nc1C` [Tetramethyl pyrazine], the “release suppressed in the presence of 1,3-propanediol” value in data set [1] (10% cut-off for significant difference, relative to PG) is on record as “suppressed”. In addition, in data set [1] (flavor/1,3-propanediol ratio of 0.05:100), the “effect of 1,3-propanediol on release” value is given as “significant suppression effect”. The “Percent Suppression by 1,3-propanediol” value in data set [1] (setting [7]) worked out at 10.2%. Also, in data set [1] (ratio 0.05:100), the “Percent Suppression by 1,3-propanediol” value is given as −44.6%. Moreover, the “Percent Suppression by 1,3-propanediol” value in data set [1] (ratio 5:100) was −17.8%. Moreover, the “Percent Suppression by 1,3-propanediol” value in data set [1] (ratio 15:100) is −5.6%. Moreover, the “Release Differences” value in data set [2] is given as “Z”. Moreover, in data set [3], the “effect of 1,3-propanediol on flavor release relative to propylene glycol, water/solvent” value was “little effect”. Besides, in data set [4], the “PTR-MS headspace release in 1,3-butanediol” value was 12.3, the “PTR-MS headspace release in 1,3-propanediol” value worked out at 9.89, the “PTR-MS headspace release in 1,4-butanediol” value worked out at 20.5 and the “PTR-MS headspace release in 1,7-heptanediol” value was 22.0. Also, in data set [4], the “PTR-MS headspace release in Propylene glycol” value is 17.85 and the “Percent suppression by 1,3-butanediol relative to 1,4-butanediol” value was −67.3%.

(Values after patent US9883691B2, “Food and beverage products containing 1,3-propanediol and methods of modifying flavor release using 1,3-propanediol” (Kraft Foods Group Brands LLC, priority 2012, dated 2018).)
